Data: patent US20150125457A1, “BONE REPAIR PROMOTER” (DAIICHI SANKYO COMPANY, LIMITED, priority 2012, published 2015)

What was measured:
Assay type in all cases: in vivo
[1] = test system: rat closed femur fracture model; experiment: Rat closed femur fracture model, callus diameter; conditions: 0.5 mg/kg/day continuous s.c. for one week; 7 days after fracture; versus vehicle group; FIG. 5B
Protocol: (§1) In accordance with the method of Example 2, a rat closed fracture model was prepared. An administration solution was prepared so as to be a dosage corresponding to 0.5 mg/kg/day by using various NPR-B agonists (CNP derivative A, hCNP-53 (SEQ ID NO: 2), CNP derivative C (CNP-36, amino acid Nos. 18 to 53 of SEQ ID NO: 2), and CNP derivative D (Pro-Gly-CNP37, SEQ ID NO: 15)), and then loaded into an osmotic pump (Model 2001, Alzet). The osmotic pump was buried under the skin of the neck back of the animal retained in a supine position, and continuous subcutaneous administration was performed for one week. Vehicle was administered to the control group. 7 days after the preparation of the bone fracture, the animal was subjected to isoflurane inhalation anesthesia, retained in a supine position to open the abdomen, and then subjected to blood collection from the abdominal aorta. EDTA Na was added to the blood, then the EDTA Na-added blood was centrifuged and the plasma separated, and the resultant was cryopreserved. At a later date, the cGMP level in the plasma was measured by a RIA method using a kit (YSI-7702, YAMASA CORPORATION). After blood collection, the animal was bled for the euthanasia, and then the left femur was resected. Each maximum diameter of the sagittal plane and the coronal plane in the callus was measured, and the average value was used as a callus diameter. In accordance with the method of Example 3, the type X collagen gene expression level in the callus was measured. The measurement was performed for 12 cases in each group.

Sox9 gene = experiment: Rat closed femur fracture model, cartilage-related marker gene expression (real-time PCR); conditions: 0.5 mg/kg/day continuous s.c. (osmotic pump) for one week; 7 days after fracture; normalized to ubiquitin C
Protocol: In accordance with the method of Example 2, a rat closed fracture model was prepared. For an animal in a Sham group, a pin only was inserted into the femur, and a bone fracture was not prepared. An administration solution of CNP derivative A was prepared so as to be a dosage corresponding to 0.5 mg/kg/day, and then loaded into an osmotic pump (model 2001, Alzet). The osmotic pump was buried under the skin of the neck back of the animal, and continuous subcutaneous administration was performed for one week. Vehicle was continuously subcutaneously administered to the control group. 7 days after the preparation of the bone fracture, the animal was subjected to isoflurane inhalation anesthesia, retained in a supine position to open the abdomen, and then bled for the euthanasia. The left femur was resected, and immersed into RNAlater (Life Technologies Corporation). The diaphysis or part of the callus was cut out from the femur that had been refrigerated in RNAlater for one day or more. To the cut-out diaphysis or part of the callus, QIAzol (QIAGEN) was added, and the resultant was crushed with tungsten beads. […] The gene expression level was measured by a real-time PCR method using TaqMan Gene Expression Master Mix (Life Technologies Corporation). The measured value was standardized by the gene expression level of ubiquitin-C. […]

type X collagen gene = experiment: as above; conditions: 7 days after fracture
Protocol: In accordance with the method of Example 2, a rat closed fracture model was prepared. For an animal in a Sham group, a pin only was inserted into the femur, and a bone fracture was not prepared. An administration solution of CNP derivative A was prepared so as to be a dosage corresponding to 0.5 mg/kg/day, and then loaded into an osmotic pump (model 2001, Alzet). The osmotic pump was buried under the skin of the neck back of the animal, and continuous subcutaneous administration was performed for one week. Vehicle was continuously subcutaneously administered to the control group. 7 days after the preparation of the bone fracture, the animal was subjected to isoflurane inhalation anesthesia, retained in a supine position to open the abdomen, and then bled for the euthanasia. The left femur was resected, and immersed into RNAlater (Life Technologies Corporation). The diaphysis or part of the callus was cut out from the femur that had been refrigerated in RNAlater for one day or more. To the cut-out diaphysis or part of the callus, QIAzol (QIAGEN) was added, and the resultant was crushed with tungsten beads. The total RNA was extracted by an RNeasy Mini Kit (QIAGEN), and 1st strand cDNA was synthesized by a SuperScript VILO cDNA Synthesis Kit (Life Technologies Corporation). The gene expression level was measured by a real-time PCR method using TaqMan Gene Expression Master Mix (Life Technologies Corporation). The measured value was standardized by the gene expression level of ubiquitin-C. The standardization was performed for 12 cases in each group.
as §1

CNP derivative A: CNP (1-22) Ghrelin (12-28, E17D): SEQ ID NO: 13; SEQ ID NO: 157 of US 2010-305031 (GLSKGCFGLKLDRIGSMSGLGCVQQRKDSKKPPAKLQPR; Chimeric CNP J (SEQ ID NO157) of US2010-305031 and WO2009/142307, and CNP derivative A of current invention.)
Maximum diameter of the callus generated in the left femur [1]: significantly larger | Gene expression level of Sox9 in fractured left femur (Sox9 gene): this high level was maintained | Gene expression of type X collagen in fractured left femur (type X collagen gene; Example 3: 0.5 mg/kg/day continuous s.c. (osmotic pump) for one week, normalized to ubiquitin C): significantly suppressed | Gene expression level of type X collagen in the callus (type X collagen gene; Example 4: 0.5 mg/kg/day continuous s.c. for one week, versus vehicle group, FIG. 5C): suppressed
